# Measurements reported in ChEMBL document CHEMBL3045707, “Synthesis of new 3-aryl-4-(3-aryl-4,5-dihydro-1H-pyrazol-5-yl)-1-phenyl-1H-pyrazole derivatives as potential antimicrobial agents” (2013).
# Assays:
# Type in all cases: functional
# [1] = system: Candida albicans; assay: Antimicrobial activity against Candida albicans MTCC 227 assessed as diameter of growth inhibition zone at 1000 ug/ml after 72 hr by agar well plate method; conditions: MTCC 227, 72 h, read-out: DIZ
# [2] = system: Aspergillus flavus; assay: Antimicrobial activity against Aspergillus flavus assessed as diameter of growth inhibition zone at 1000 ug/ml after 72 hr by agar well plate method; conditions: read-out: DIZ
# [3] = system: Aspergillus flavus; assay: Antimicrobial activity against Aspergillus flavus assessed as diameter of growth inhibition zone at 500 ug/ml after 72 hr by agar well plate method; conditions: read-out: DIZ
# [4] = system: Chrysosporium keratinophilum; assay: Antimicrobial activity against Chrysosporium keratinophilum assessed as diameter of growth inhibition zone at 1000 ug/ml after 72 hr by agar well plate method; conditions: read-out: DIZ
# [5] = system: Escherichia coli; assay: Antimicrobial activity against Escherichia coli ATCC 25922 assessed as diameter of growth inhibition zone at 500 ug/ml after 24 hr by agar well plate method; conditions: ATCC 25922, 24 h, read-out: DIZ
# [6] = system: Escherichia coli; assay: Antimicrobial activity against Escherichia coli ATCC 25922 assessed as diameter of growth inhibition zone at 1000 ug/ml after 24 hr by agar well plate method; conditions: ATCC 25922, 24 h, read-out: DIZ
# [7] = system: Staphylococcus aureus; assay: Antimicrobial activity against Staphylococcus aureus ATCC 25923 assessed as diameter of growth inhibition zone at 1000 ug/ml after 24 hr by agar well plate method; conditions: ATCC 25923, 24 h, read-out: DIZ
# [8] = system: Chrysosporium keratinophilum; assay: Antimicrobial activity against Chrysosporium keratinophilum assessed as diameter of growth inhibition zone at 500 ug/ml after 72 hr by agar well plate method; conditions: read-out: DIZ
# [9] = system: Staphylococcus aureus; assay: Antimicrobial activity against Staphylococcus aureus ATCC 25923 assessed as diameter of growth inhibition zone at 500 ug/ml after 24 hr by agar well plate method; conditions: ATCC 25923, 24 h, read-out: DIZ
# [10] = system: Candida albicans; assay: Antimicrobial activity against Candida albicans MTCC 227 assessed as diameter of growth inhibition zone at 500 ug/ml after 72 hr by agar well plate method; conditions: MTCC 227, 72 h, read-out: DIZ
# [11] = system: Pseudomonas aeruginosa; assay: Antimicrobial activity against Pseudomonas aeruginosa ATCC 27853 assessed as diameter of growth inhibition zone at 500 ug/ml after 24 hr by agar well plate method; conditions: ATCC 27853, 24 h, read-out: DIZ
# [12] = system: Pseudomonas aeruginosa; assay: Antimicrobial activity against Pseudomonas aeruginosa ATCC 27853 assessed as diameter of growth inhibition zone at 1000 ug/ml after 24 hr by agar well plate method; conditions: ATCC 27853, 24 h, read-out: DIZ
SMILES,zone of inhibition at 1000 µg/mL [1] [mm],zone of inhibition at 1000 µg/mL [2] [mm],zone of inhibition at 500 µg/mL [3] [mm],zone of inhibition at 1000 µg/mL [4] [mm],zone of inhibition at 500 µg/mL [5] [mm],zone of inhibition at 1000 µg/mL [6] [mm],zone of inhibition at 1000 µg/mL [7] [mm],zone of inhibition at 500 µg/mL [8] [mm],zone of inhibition at 500 µg/mL [9] [mm],zone of inhibition at 500 µg/mL [10] [mm],zone of inhibition at 500 µg/mL [11] [mm],zone of inhibition at 1000 µg/mL [12] [mm]
Clc1ccc(-c2nn(-c3ccccc3)cc2C2CC(c3ccc(Cl)cc3Cl)=NN2c2ccccc2)cc1 (centres undefined),4,4,2,5,4,6,7,2,4,2,6,8
CSc1ccc(C2=NN(c3ccccc3)C(c3cn(-c4ccccc4)nc3-c3ccc(Br)cc3)C2)cc1 (centres undefined),4,4,3,6,6,7,9,5,7,2,6,8
Clc1ccc(C2=NN(c3ccccc3)C(c3cn(-c4ccccc4)nc3-c3ccc(Br)cc3)C2)c(Cl)c1 (centres undefined),3,4,1,4,5,8,8,2,6,1,5,5
Brc1ccc(-c2nn(-c3ccccc3)cc2C2CC(c3ccc(-c4ccccc4)cc3)=NN2c2ccccc2)cc1 (centres undefined),5,6,5,4,6,9,6,3,4,4,5,7
CSc1ccc(C2=NN(c3ccccc3)C(c3cn(-c4ccccc4)nc3-c3ccccc3)C2)cc1 (centres undefined),0,0,0,0,1,3,2,0,0,0,2,3
CSc1ccc(C2=NN(c3ccccc3)C(c3cn(-c4ccccc4)nc3-c3ccc(Cl)cc3)C2)cc1 (centres undefined),3,3,2,3,4,5,8,1,5,1,4,7
Clc1ccc(C2=NN(c3ccccc3)C(c3cn(-c4ccccc4)nc3-c3ccccc3)C2)c(Cl)c1 (centres undefined),0,0,0,0,0,0,0,0,0,0,0,0
OC(Cn1cncn1)(Cn1cncn1)c1ccc(F)cc1F [FLUCONAZOLE],22,13,10,17,,,,15,,20,,
Clc1ccc(-c2nn(-c3ccccc3)cc2C2CC(c3ccc(-c4ccccc4)cc3)=NN2c2ccccc2)cc1 (centres undefined),5,5,3,4,5,7,8,3,6,2,6,4
COc1ccc(-c2nn(-c3ccccc3)cc2C2CC(c3ccc(-c4ccccc4)cc3)=NN2c2ccccc2)cc1 (centres undefined),0,0,0,0,2,4,4,0,2,0,2,5
COc1ccc(-c2nn(-c3ccccc3)cc2C2CC(c3ccc(SC)cc3)=NN2c2ccccc2)cc1 (centres undefined),0,0,0,0,1,2,4,0,3,0,2,4
COc1ccc(-c2nn(-c3ccccc3)cc2C2CC(c3ccc(Cl)cc3Cl)=NN2c2ccccc2)cc1 (centres undefined),0,0,0,0,2,3,4,0,3,0,1,4
CN[C@@H]1[C@H](O[C@H]2[C@H](O[C@H]3[C@H](O)[C@@H](O)[C@H](N=C(N)N)[C@@H](O)[C@@H]3N=C(N)N)O[C@@H](C)[C@]2(O)C=O)O[C@@H](CO)[C@H](O)[C@H]1O [STREPTOMYCIN],,,,,10,16,15,,10,,13,16
